Laboratory results taken from patent US20050130221A1, “Synthesis for the preparation of compounds for screening as potential tubulin binding agents” (The Australian National University, priority 2001, published 2005).
Read-outs that look alike come from different tables or passages of the source.

Assays:
tubulin [1] = system: T1, tubulin; test: Inhibition of tubulin polymerization; format: biochemical; details: tubulin 10 μM; extent of assembly measured; asterisk: rate but not extent inhibited up to 40 μM
T1 construct: other: tubulin 10 μM; extent of assembly measured; asterisk: rate but not ex; tubulin 1.0 μM; [3H]colchicine; [3H]colchicin

tubulin [2] = system: T1, tubulin; test: Inhibition of [3H]colchicine binding to tubulin; details: tubulin 1.0 μM, [3H]colchicine 5.0 μM
[3] = system: MCF-7 human breast carcinoma cell line; test: Inhibition of MCF-7 cell growth; format: cell-based
[4] = system: Burkitt lymphoma CA46 cells; test: Inhibition of CA46 cell growth; format: cell-based; details: Homo sapiens
tubulin [5] = details: background statement, literature; cited from earlier work
[6] = CA46, read-out: Inhibition of CA46 cell growth IC50

SMILES | melting point | IC50 (tubulin [1]) | Inhibition of colchicine binding (% inhibition), 5 μM inhibitor (tubulin [2]) | also measured
COc1ccc2c(C(O)c3cc(OC)c(OC)c(OC)c3)c(-c3ccc(OC)c(O)c3)oc2c1 (stereo not drawn) [BLF-69-3, 6-Methoxy-2-(3-hydroxy-4-methoxyphenyl)-3-[α-hydroxy-α-(3,4,5-trimethoxyphenyl)methyl]benzo[b]furan] | 68 to 69 °C | – | – | –
COc1ccc(C2=C(C(=O)c3cc(OC)c(OC)c(OC)c3)C(=O)c3cc(OC)c(OC)c(OC)c32)cc1O [DK-12a-1, 3-(3′-Hydroxy-4′-methoxyphenyl)-4,5,6-trimethoxy-2-(3′,4″,5″-trimethoxybenzoyl)indenone] | – | 10000 to 40000 nM | – | –
COc1ccc2c(-c3cc(OC)c(OC)c(OC)c3)c(-c3ccc(OC)c(O)c3)[nH]c2c1 [BLF-61-3, 6-Methoxy-2-(3-hydroxy-4-methoxyphenyl)-3-(3,4,5-trimethoxyphenyl)indole] | 98 to 99 °C | – | – | –
COc1ccc(-c2sccc2C(=O)c2cc(OC)c(OC)c(OC)c2)cc1O [BLF-89-3] | 151 to 152 °C | 1000 ± 100 nM | 67% | IC50 ([3]; MCF7, MCF-7 human breast carcinoma cell line, read-out: Inhibition of cell growth IC50 (MCF-7)): 300 nM
COc1ccc(/C=C\c2cc(OC)c(OC)c(OC)c2)cc1O [(A), Combretastatin A4, reference compound] | – | – | 91% | IC50 ([4]; Burkitt lymphoma CA46 cells, read-out: Inhibition of CA46 cell growth IC50): 1 nM
COc1ccc2c(C(=O)c3cc(OC)c(OC)c(OC)c3)c(-c3ccc(OC)c(O)c3)sc2c1 [BLF-86-1, 2-(3′-Hydroxy-4′-methoxyphenyl)6-methoxy-3-(3″,4″,5″-trimethoxybenzoyl)benzo[b]thiophene] | 123 to 125 °C | – | – | –
COc1ccc2c(C(=O)c3cc(OC)c(OC)c(OC)c3)c(-c3ccc(OC)c(O)c3)oc2c1 [BLF-62-3, 6-Methoxy-2-(3-hydroxy-4-methoxyphenyl)-3-(3,4,5-trimethoxybenzoyl)benzo bifuran] | 68 to 69 °C | – | – | –
COc1ccc(C(=O)c2cc3cc(O)c(OC)cc3s2)cc1O [KH-2-2, 5-Hydroxy-2-(3′-hydroxy-4′-methoxybenzoyl)-6-methoxybenzo[b]thiophene] | – | 2400 ± 400 nM | – | –
COc1ccc2c(C(O)c3ccc(OC)c(O)c3)c(-c3cc(OC)c(OC)c(OC)c3)sc2c1 (centres unmarked) [BLF-34-3] | – | 6100 ± 800 nM | 5% | Inhibition of colchicine binding (% inhibition), 50 μM inhibitor (tubulin [2]): 73%; IC50 [4, 6]: > 1000 nM
COc1ccc2[nH]c(-c3ccc4c(c3)OCO4)c(-c3cc(OC)c(OC)c(OC)c3)c2c1 [(C)] | – | – | – | tubulin binding activity (tubulin [5]): moderate
COc1ccc(-c2sc3cc4c(cc3c2C(=O)c2cc(OC)c(OC)c(OC)c2)OCO4)cc1O [BLF-53-3, 2-(3′-Hydroxy-4′-methoxyphenyl)-5,6-methylendioxy-3-(3″,4″,5″-trimethoxybenzoyl)benzo[b]thiophene] | 156 to 157 °C | > 40000 nM | 2% | Inhibition of colchicine binding (% inhibition), 50 μM inhibitor (tubulin [2]): 31%; IC50 [4, 6]: > 1000 nM
COc1ccc(-c2oc3cc(OC)ccc3c2C(O)c2cc(OC)c(OC)c(OC)c2)cc1 (centres unmarked) [BLF-68-3] | 53 to 54 °C | – | – | –
COc1ccc(-c2oc3cc(O)c(OC)cc3c2-c2cc(OC)c(OC)c(OC)c2)cc1O [(D)] | – | – | – | tubulin binding activity (tubulin [5]): did not exhibit tubulin binding activity
COc1ccc(C2=C(c3cc(OC)c(OC)c(OC)c3)CCS2)cc1OC(C)=O [GPF-60-1, 2-(3′-acetoxy-4′-methoxyphenyl)-4,5-dihydro-3-(3″,4″,5″-trimethoxyphenyl)thiophene] | – | 3600 ± 1000 nM | 64% | Inhibition of colchicine binding (% inhibition), 50 μM inhibitor (tubulin [2]): 88%; IC50 ([3]; Homo sapiens, MCF7, read-out: Inhibition of cell growth IC50 (MCF-7)): 390 nM
COc1ccc(-c2oc3cc(OC)ccc3c2Cc2cc(OC)c(OC)c(OC)c2)cc1 [BLF-70-3, 6-Methoxy-2-(4-methoxyphenyl)-3-(3,4,5-trimethoxybenzyl)benzo[b]furan] | 121 to 122 °C | – | – | –
